Results from patent US20230233569A1 (Revolution Medicines, Inc., priority 2020, published 2023).
Several values for one entry are separate records, joined by “and”; a condition that tells them apart may be missing. Identical values can stand only once. Like-named read-outs stand apart in the source and are kept apart here.

Assays:
[1] = tested on: NCI-H358 (K-Ras G12C); test: CellTiter-Glo cell viability assay, 5-day treatment; type: cell-based; conditions: Homo sapiens
In short: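 Viability is read as luminescence on day 5 after direct compound addition to plated cells, following about 30 minutes' room-temperature equilibration. Each signal is scaled to mean DMSO as 100%.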

[2] = target: KRAS G12C (Homo sapiens, UniProt P01116+P62937, G12C); test: Disruption of BRAF RBD interaction with Ras (FRET / MOA assay, with Cyclophilin A); type: biochemical
KRAS G12C, sequence (P01116 1-169 isoform P01116-2 G12C): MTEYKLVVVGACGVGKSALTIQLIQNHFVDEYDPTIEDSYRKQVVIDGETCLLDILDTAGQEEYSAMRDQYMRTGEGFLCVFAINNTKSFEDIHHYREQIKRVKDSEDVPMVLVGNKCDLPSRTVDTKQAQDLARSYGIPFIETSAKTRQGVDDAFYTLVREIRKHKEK
KRAS G12C, sequence (P62937 whole entry): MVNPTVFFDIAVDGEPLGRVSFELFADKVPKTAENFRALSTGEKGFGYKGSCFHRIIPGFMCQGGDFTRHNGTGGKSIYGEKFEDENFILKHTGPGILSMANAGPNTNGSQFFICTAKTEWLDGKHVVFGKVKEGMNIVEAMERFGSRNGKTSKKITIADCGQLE
In short: (§1)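 Measured via TR-FRET after 3 h at 25 °C with compound (30 μM top, threefold serial steps, ten concentrations) plus K-Ras, Cyclophilin A and BRAF RBD, followed by 1.5 h with anti-His europium (10 nM) and anti-GST allophycocyanin (50 nM). Signal loss versus DMSO gave IC50.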

[3] = target: KRAS G12D (Homo sapiens, UniProt P01116+P62937, G12D); test: as above; type: biochemical
KRAS G12D, sequence (P01116 1-169 isoform P01116-2 G12D limits assumed): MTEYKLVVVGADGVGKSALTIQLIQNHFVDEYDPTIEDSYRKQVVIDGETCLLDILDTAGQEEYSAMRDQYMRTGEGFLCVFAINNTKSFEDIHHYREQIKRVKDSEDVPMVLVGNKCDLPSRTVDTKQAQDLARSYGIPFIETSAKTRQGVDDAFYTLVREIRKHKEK
KRAS G12D, sequence (P62937 whole entry): as the sequence (P62937 whole entry) above
In short: as §1

[4] = target: KRAS G12S (Homo sapiens, UniProt P01116+P62937, G12S); test: as above; type: biochemical
KRAS G12S, sequence (P01116 1-169 isoform P01116-2 G12S limits assumed): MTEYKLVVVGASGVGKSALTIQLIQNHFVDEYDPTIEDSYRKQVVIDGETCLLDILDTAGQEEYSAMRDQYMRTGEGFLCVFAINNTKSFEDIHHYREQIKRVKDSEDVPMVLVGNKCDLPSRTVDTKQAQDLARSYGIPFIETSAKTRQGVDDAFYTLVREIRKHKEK
KRAS G12S, sequence (P62937 whole entry): as the sequence (P62937 whole entry) above
In short: as §1

[5] = target: KRAS G12V (Homo sapiens, UniProt P01116+P62937, G12V); test: as above; type: biochemical
KRAS G12V, sequence (P01116 1-169 isoform P01116-2 G12V limits assumed): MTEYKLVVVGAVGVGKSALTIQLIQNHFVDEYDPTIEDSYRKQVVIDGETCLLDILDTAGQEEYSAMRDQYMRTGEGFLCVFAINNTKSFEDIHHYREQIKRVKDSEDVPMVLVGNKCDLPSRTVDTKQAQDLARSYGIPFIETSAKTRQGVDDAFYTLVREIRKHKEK
KRAS G12V, sequence (P62937 whole entry): as the sequence (P62937 whole entry) above
In short: as §1

[6] = target: KRAS G13C (Homo sapiens, UniProt P01116+P62937, G13C); test: as above; type: biochemical
KRAS G13C, sequence (P01116 1-169 isoform P01116-2 G13C): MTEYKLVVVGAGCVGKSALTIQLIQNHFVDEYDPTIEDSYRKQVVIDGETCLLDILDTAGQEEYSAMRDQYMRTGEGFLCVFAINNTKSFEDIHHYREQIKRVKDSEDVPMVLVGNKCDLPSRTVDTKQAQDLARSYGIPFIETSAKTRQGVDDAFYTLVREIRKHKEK
KRAS G13C, sequence (P62937 whole entry): as the sequence (P62937 whole entry) above
In short: as §1

[7] = target: KRAS G13D (Homo sapiens, UniProt P01116+P62937, G13D); test: as above; type: biochemical
KRAS G13D, sequence (P01116 1-169 isoform P01116-2 G13D limits assumed): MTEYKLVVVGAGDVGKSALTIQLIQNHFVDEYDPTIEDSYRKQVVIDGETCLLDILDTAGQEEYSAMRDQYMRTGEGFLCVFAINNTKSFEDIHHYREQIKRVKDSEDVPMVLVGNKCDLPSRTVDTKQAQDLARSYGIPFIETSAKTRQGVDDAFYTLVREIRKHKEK
KRAS G13D, sequence (P62937 whole entry): as the sequence (P62937 whole entry) above
In short: as §1

[8] = target: NRAS G12C (Homo sapiens, UniProt P01111+P62937, G12C); test: as above; type: biochemical
NRAS G12C, sequence (P01111 whole entry G12C): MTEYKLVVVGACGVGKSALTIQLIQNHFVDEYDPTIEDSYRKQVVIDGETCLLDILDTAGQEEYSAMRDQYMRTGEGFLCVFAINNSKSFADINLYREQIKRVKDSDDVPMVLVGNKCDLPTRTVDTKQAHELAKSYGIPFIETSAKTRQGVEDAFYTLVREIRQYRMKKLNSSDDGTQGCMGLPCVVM
NRAS G12C, sequence (P62937 whole entry): as the sequence (P62937 whole entry) above

[9] = target: KRAS Q61H (Homo sapiens, UniProt P01116+P62937, Q61H); test: as above; type: biochemical; conditions: KRAS Q61H; read-out: KRAS Q61H FRET data IC50
KRAS Q61H, sequence (P01116 1-169 isoform P01116-2 Q61H limits assumed): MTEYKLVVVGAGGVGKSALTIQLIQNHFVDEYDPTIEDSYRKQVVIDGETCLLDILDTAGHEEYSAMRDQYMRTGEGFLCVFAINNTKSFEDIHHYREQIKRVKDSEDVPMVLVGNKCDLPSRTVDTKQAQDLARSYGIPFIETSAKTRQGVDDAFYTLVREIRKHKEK
KRAS Q61H, sequence (P62937 whole entry): as the sequence (P62937 whole entry) above
In short: (§2)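 IC50 reflects compound-driven Ras:Cyclophilin A ternary complex displacing BRAF RBD, read as lowered TR-FRET ratio relative to DMSO after Eu anti-His (10 nM) and APC anti-GST (50 nM) detection for 1.5 h. Prior incubation 3 h, 25° C, with 12.5 nM GMPPNP-loaded Ras, 50 nM BRAF RBD, 25 μM Cyclophilin A; top compound 30 μM.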

[10] = target: NRAS Q61K (Homo sapiens, UniProt P01111+P62937, Q61K); test: as above; type: biochemical; conditions: NRAS Q61K; read-out: NRAS Q61K FRET data IC50
NRAS Q61K, sequence (P01111 whole entry Q61K): as the sequence (P01111 whole entry G12C) above, with C12G, Q61K counted along it
NRAS Q61K, sequence (P62937 whole entry): as the sequence (P62937 whole entry) above
In short: as §2

[11] = target: NRAS Q61R (Homo sapiens, UniProt P01111+P62937, Q61R); test: as above; type: biochemical; conditions: NRAS Q61R; read-out: NRAS Q61R FRET data IC50
NRAS Q61R, sequence (P01111 whole entry Q61R): as the sequence (P01111 whole entry G12C) above, with C12G, Q61R counted along it
NRAS Q61R, sequence (P62937 whole entry): as the sequence (P62937 whole entry) above
In short: as §2

[12] = target: KRAS WT (Homo sapiens, UniProt P01116+P62937); test: as above; type: biochemical; conditions: KRAS WT; read-out: KRAS WT FRET data IC50
KRAS WT, sequence (P01116 1-169 isoform P01116-2 limits assumed): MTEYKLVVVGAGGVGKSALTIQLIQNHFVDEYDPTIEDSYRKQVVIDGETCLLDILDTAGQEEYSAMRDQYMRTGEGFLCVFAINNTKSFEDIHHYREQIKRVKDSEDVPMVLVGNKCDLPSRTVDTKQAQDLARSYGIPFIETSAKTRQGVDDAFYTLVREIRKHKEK
KRAS WT, sequence (P62937 whole entry): as the sequence (P62937 whole entry) above
In short: as §1

[13] = target: NRAS WT (Homo sapiens, UniProt P01111+P62937); test: as above; type: biochemical; conditions: NRAS WT; read-out: NRAS WT FRET data IC50
NRAS WT, sequence (P01111 whole entry): as the sequence (P01111 whole entry G12C) above, with C12G counted along it
NRAS WT, sequence (P62937 whole entry): as the sequence (P62937 whole entry) above
In short: as §2

[14] = NCI-H358, H358, K-Ras G12C, read-out: Additional H358 Cell Viability assay data (K-Ras G12C, IC50)
[15] = KRAS G12C, read-out: KRAS G12C FRET data IC50
[16] = read-out: KRAS G12D FRET data, IC50
[17] = read-out: KRAS G12S FRET data, IC50
[18] = KRAS G12V, read-out: KRAS G12V FRET data IC50
[19] = KRAS G13C, read-out: KRAS G13C FRET data IC50
[20] = KRAS G13D, read-out: KRAS G13D FRET data IC50
[21] = NRAS G12C, read-out: NRAS G12C FRET data IC50
[22] = NCI-H358, 120 h, 5-day treatment, read-out: H358 Cell Viability assay data (K-Ras G12C, IC50)
[23] = read-out: KRAS G12C FRET data, IC50
[24] = read-out: KRAS G13C FRET data, IC50

Compound | IC50 [9] | IC50 [10] | IC50 [11] | IC50 [3, 16] | IC50 [4, 17] | IC50 [5, 18] | IC50 [7, 20] | IC50 [12] | IC50 [8, 21] | IC50 [13] | also measured
C=CC(=O)N1CC[C@H](C(=O)N(C)[C@H](C(=O)N[C@H]2C[C@H]3CN(CCO3)c3ccc4c(c3)c(c(-c3cccnc3[C@H](C)OC)n4CC)CC(C)(C)COC(=O)[C@@H]3CCCN(N3)C2=O)C(C)C)C1 (racemic) [Example A507] | > 10 µM | > 10 µM | > 10 µM |  |  |  |  |  |  |  | IC50 [1, 14]: 0.1 to 1 µM; IC50 ([2]; KRAS G12C FRET data IC50, KRAS G12C): 0.1 to 1 µM; IC50 ([3]; KRAS G12D FRET data, IC50): > 10 µM; IC50 ([4]; KRAS G12S FRET data, IC50): 1 to 10 µM; IC50 ([5]; KRAS G12V FRET data IC50, KRAS G12V): 1 to 10 µM; IC50 ([6]; KRAS G13C FRET data IC50, KRAS G13C): 1 to 10 µM; IC50 ([7]; KRAS G13D FRET data IC50, KRAS G13D): > 10 µM; IC50 ([8]; NRAS G12C FRET data IC50, NRAS G12C): 0.1 to 1 µM
C=CC(=O)N1CC2(CCN2C(=O)N(C)[C@H](C(=O)N[C@H]2Cc3nc(n(C)n3)-c3ccc4c(c3)c(c(-c3cccnc3[C@H](C)OC)n4CC)CC(C)(C)COC(=O)C3CCCN(N3)C2=O)C(C)C)C1 (stereo partly drawn) [Example A612] | 0.01 to 0.1 µM | 0.01 to 0.1 µM | 0.01 to 0.1 µM | 0.1 to 1 µM | 0.1 to 1 µM | 0.1 to 1 µM | 0.1 to 1 µM | 0.1 to 1 µM | < 0.01 µM |  | IC50 [1, 14]: 0.1 to 1 µM; IC50 [2, 15]: 0.01 to 0.1 µM; IC50 [6, 19]: 0.1 to 1 µM
CCn1c(-c2cccnc2[C@H](C)OC)c2c3cc(ccc31)-c1csc(n1)C[C@H](NC(=O)[C@H](C(C)C)N(C)C(=O)N1[C@H](C)COC[C@H]1C)C(=O)N1CCC[C@H](N1)C(=O)OCC(C)(C)C2 (atropisomer, axis not shown) [Example A275] | < 0.01 µM | < 0.01 µM | 0.01 to 0.1 µM |  |  |  |  |  |  | 0.01 to 0.1 µM | 
CCn1c(-c2cccnc2[C@H](C)OC)c2c3cc(ccc31)-c1csc(n1)C[C@H](NC(=O)[C@H](C(C)C)N(C)C(=O)N1CC(OC)C1)C(=O)N1CCC[C@H](N1)C(=O)OCC(C)(C)C2 (racemic) [Example A205] | 0.01 to 0.1 µM | 0.01 to 0.1 µM | 0.1 to 1 µM |  |  |  |  |  |  | 0.1 to 1 µM | IC50 [1, 22]: < 0.01 µM
CCn1c(-c2cccnc2[C@H](C)OC)c2c3cc(ccc31)-c1cc(O)cc(c1)C[C@H](NC(=O)C1[C@H]3COC[C@@H]13)C(=O)N1CCC[C@H](N1)C(=O)OCC(C)(C)C2 (stereo partly drawn) [Example A253] | 0.1 to 1 µM | 1 to 10 µM | 1 to 10 µM | 1 to 10 µM and > 10 µM | 1 to 10 µM and > 10 µM | 1 to 10 µM | 1 to 10 µM and > 10 µM | 1 to 10 µM | 1 to 10 µM | 0.1 to 1 µM | IC50 [2, 23]: 0.1 to 1 µM and 1 to 10 µM; IC50 [6, 24]: 0.1 to 1 µM and 1 to 10 µM
CCn1c(-c2cccnc2[C@H](C)OC)c2c3cc(ccc31)-c1csc(n1)C[C@H](NC(=O)[C@H](C(C)C)N(C)C(=O)N1CC([C@@H](C)OC)C1)C(=O)N1CCC[C@H](N1)C(=O)OCC(C)(C)C2 (atropisomer, axis not shown) [Example A278] |  | 0.01 to 0.1 µM | 0.01 to 0.1 µM |  |  |  |  |  |  | 0.01 to 0.1 µM | IC50 [1, 22]: < 0.01 µM
C=CS(=O)(=O)N1CC[C@H](C(=O)N(C)[C@H](C(=O)N[C@H]2Cc3cccc(c3)-c3ccc4c(c3)c(c(-c3cncnc3)n4CC)CC(C)(C)COC(=O)[C@@H]3CCCN(N3)C2=O)C(C)C)C1 [Example A171] | > 10 µM | > 10 µM | > 10 µM | > 10 µM | > 10 µM | > 10 µM | > 10 µM | > 10 µM | 1 to 10 µM |  | IC50 [1, 14]: 0.1 to 1 µM; IC50 [2, 15]: 1 to 10 µM; IC50 [6, 19]: 1 to 10 µM
CCn1c(-c2cccnc2[C@H](C)OC)c2c3cc(ccc31)-c1cc(O)cc(c1)C[C@H](NC(=O)[C@H](C1CCCC1)N(C)C(=O)N1CCS(=O)(=NC)CC1)C(=O)N1CCC[C@H](N1)C(=O)OCC(C)(C)C2 [Example A426] | 0.01 to 0.1 µM | 0.1 to 1 µM | 0.1 to 1 µM | 0.1 to 1 µM | 0.1 to 1 µM | 0.1 to 1 µM | 0.01 to 0.1 µM | 0.01 to 0.1 µM | 0.01 to 0.1 µM | 0.01 to 0.1 µM | IC50 [2, 23]: 0.01 to 0.1 µM; IC50 [6, 24]: 0.01 to 0.1 µM
C=CC(=O)N1CC[C@H](C(=O)N(C)[C@H](C(=O)N[C@H]2Cc3cc(O)cc(c3)-c3ccc4c(c3)c(c(-c3cnccc3[C@H](C)OC)n4CC)CC(C)(C)COC(=O)[C@@H]3CCCN(N3)C2=O)C(C)C)C1 [Example A076] | 0.01 to 0.1 µM | 0.1 to 1 µM | 0.1 to 1 µM | 0.1 to 1 µM | 0.01 to 0.1 µM | 0.01 to 0.1 µM | 0.01 to 0.1 µM | 0.01 to 0.1 µM | < 0.01 µM |  | IC50 [2, 15]: 0.01 to 0.1 µM and < 0.01 µM; IC50 [6, 19]: 0.01 to 0.1 µM
CCn1c(-c2cccnc2[C@H](C)OC)c2c3cc(ccc31)-c1cc(O)cc(c1)C[C@H](NC(=O)C(C)Cc1ccncc1)C(=O)N1CCC[C@H](N1)C(=O)OCC(C)(C)C2 (stereo partly drawn) [Example A179] | 0.1 to 1 µM | 1 to 10 µM | 1 to 10 µM |  |  |  |  |  |  | 0.1 to 1 µM | 
CCn1c(-c2cccnc2[C@H](C)OC)c2c3cc(ccc31)-c1cc(O)cc(c1)C[C@H](NC(=O)C13CCCC1C3(F)F)C(=O)N1CCC[C@H](N1)C(=O)OCC(C)(C)C2 (stereo partly drawn) [Example A180] | 0.1 to 1 µM | 1 to 10 µM | 1 to 10 µM |  |  |  |  |  |  | 1 to 10 µM | 
CCn1c(-c2cccnc2[C@H](C)OC)c2c3cc(ccc31)-c1cc(O)cc(c1)C[C@H](NC(=O)[C@@H]1[C@H](C)CCN1C(C)=O)C(=O)N1CCC[C@H](N1)C(=O)OCC(C)(C)C2 [Example A144] | 0.1 to 1 µM | 0.1 to 1 µM | 1 to 10 µM |  |  |  |  |  |  | 0.1 to 1 µM | 
CCn1c(-c2cc(N3CCN(C)CC3)cnc2[C@H](C)OC)c2c3cc(ccc31)-c1csc(n1)C[C@H](NC(C)=O)C(=O)N1CCC[C@H](N1)C(=O)OCC(C)(C)C2 (atropisomer, axis not shown) [Example A340] | > 10 µM | > 10 µM | > 10 µM | > 10 µM | > 10 µM | > 10 µM | > 10 µM | > 10 µM | > 10 µM | > 10 µM | IC50 [2, 23]: > 10 µM; IC50 [6, 24]: > 10 µM
CCn1c(-c2cccnc2[C@H](C)OC)c2c3cc(ccc31)-c1cc(O)cc(c1)C[C@H](NC(=O)[C@H](C(C)C)N(C)C(=O)[C@H]1[C@@H]3CNC[C@@H]31)C(=O)N1CCC[C@H](N1)C(=O)OCC(C)(C)C2 [Example A163] | 0.1 to 1 µM | 1 to 10 µM | 1 to 10 µM |  |  |  |  |  |  | 0.1 to 1 µM | 
